Experimental data from publication PMC12075686, “Structural basis of phosphorylation-independent nuclear import of CIRBP by TNPO3” (Nature Communications, 2025).
Substitutions are numbered along the chain they refer to. Non-standard residues stand in square brackets, D forms with d. Residues, ends and D or L forms follow the SMILES beside them. No end group written: not given here. pS = N[C@@H](COP(=O)(O)O)C(=O)O

How the values were obtained:
TNPO3 = assay: NMR binding studies with TNPO3 (1H-15N HSQC, 1H-13C HMQC, 1H 1D, STD); parameters: species or system human; conditions: for chemical shift perturbations of TNPO3 methyl groups upon ligand addition (1H,13C HMQC): 100 µM [IM-methyl 13C] labeled TNPO3, one stoichiometric equivalent of ligand, 298 K; for line broadening of peptide 1H signals upon addition of TNPO3 (1H NMR): 50 µM peptide, stoichiometric amount of TNPO3
Procedure: All NMR studies for TNPO3 were carried out using the wild type protein. Protein samples for ^1H-^13C HMQC were prepared at a concentration of 100 μM and equilibrated in a buffer containing 50 mM Tris–HCl, pH 6.7, 150 mM NaCl, 2 mM TCEP and 10% D2O. Spectral acquisitions for TNPO3 free and in complex with CIRBP^RSY and SRSF1^RS, respectively were performed at 298 K on a 700 MHz Bruker Avance III NMR spectrometer equipped with a TCI triple-resonance cryoprobe. The pulse program was sfhmqcf2gpph and the spectra were recorded with 32 scans, interscan delay of 1 s, 160 points in F1, 1024 points in F2, 5283.879 Hz spectral width in F1, and 11,160.714 Hz spectral width in F2. Spectra were processed using Topspin 4.1.3.
Spectral acquisitions for TNPO3 free and in complex with mCIRBP^RSY, pCIRBP^RSY, and pSRSF1^RS, respectively, were performed at 298 K on a 600 MHz Bruker Avance Neo NMR spectrometer equipped with a TXI 600S3 probehead. The pulse program was hmqcgpphwg and the spectra were recorded with 64 scans, interscan delay of 1 s, 200 points in F1, 1024 points in F2, 4545.455 Hz spectral width in F1, and 7812.500 Hz spectral width in F2. Spectra were processed using Topspin 4.3.0.
For ^1H-^15N HSQC spectra, protein samples were equilibrated in a buffer containing 50 mM Tris–HCl, pH 6.7, 150 mM NaCl, 2 mM TCEP, 0.04% NaN3, and 10% D2O (with additional 20 mM MgCl2 for CIRBP phosphorylation kinetics). Data were recorded at 298 K on the 600 MHz Bruker Avance Neo NMR spectrometer equipped with a TXI 600S3 probehead. The pulse program was hsqcetfpf3gpsi and was recorded with 8-16 scans, interscan delay of 1 s, 128 points in F1, 1024 points in F2, 1949.318 Hz spectral width in F1, and 9615.385 Hz spectral width in F2. Spectra were processed using Topspin 4.3.0.

TNPO3 WT = biological target: T1, TNPO3 WT (Homo sapiens, UniProt Q9Y5L0); assay: ITC, ligand titrated into TNPO3 WT; assay type: binding; conditions: for ΔS: TNPO3 WT
T1 sequence (Q9Y5L0 1-923): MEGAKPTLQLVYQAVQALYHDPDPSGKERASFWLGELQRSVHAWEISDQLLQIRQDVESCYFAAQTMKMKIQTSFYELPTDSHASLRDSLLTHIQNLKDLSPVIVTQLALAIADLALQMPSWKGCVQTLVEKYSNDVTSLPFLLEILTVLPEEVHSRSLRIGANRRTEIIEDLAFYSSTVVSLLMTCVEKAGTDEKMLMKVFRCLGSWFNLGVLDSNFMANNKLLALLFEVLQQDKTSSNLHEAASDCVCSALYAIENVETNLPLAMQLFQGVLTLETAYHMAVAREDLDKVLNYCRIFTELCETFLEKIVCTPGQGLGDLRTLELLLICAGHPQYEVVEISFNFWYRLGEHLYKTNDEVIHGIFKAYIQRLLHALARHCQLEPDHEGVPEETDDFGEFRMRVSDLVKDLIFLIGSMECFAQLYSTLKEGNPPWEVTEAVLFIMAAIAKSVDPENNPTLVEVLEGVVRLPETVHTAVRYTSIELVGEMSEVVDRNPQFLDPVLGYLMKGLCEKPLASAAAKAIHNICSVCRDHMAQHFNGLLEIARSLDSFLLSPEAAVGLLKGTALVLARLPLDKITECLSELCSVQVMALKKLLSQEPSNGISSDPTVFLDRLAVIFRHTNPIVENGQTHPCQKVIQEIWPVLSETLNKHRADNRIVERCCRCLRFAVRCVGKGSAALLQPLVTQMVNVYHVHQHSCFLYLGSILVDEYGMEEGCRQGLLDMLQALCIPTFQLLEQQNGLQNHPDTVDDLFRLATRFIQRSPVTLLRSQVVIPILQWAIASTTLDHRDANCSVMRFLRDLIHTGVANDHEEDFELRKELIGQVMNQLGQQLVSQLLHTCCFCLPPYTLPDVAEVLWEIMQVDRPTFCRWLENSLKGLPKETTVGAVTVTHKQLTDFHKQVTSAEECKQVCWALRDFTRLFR
Procedure: (§1) ITC has been performed by a Malvern Microcal VP-ITC at 25 °C for all binding studies. Samples have been dissolved in Tris buffer containing 50 mM Tris–HCl, 150 mM NaCl, 2 mM TCEP, and 0.04% NaN3 at pH 7.5. Binding studies of CIRBP^RSY and SRSF1^RS were performed with TNPO3 WT, and studies of CIRBP (157–172) and its mutants/phosphorylations were performed with TNPO3 C511A, respectively. Injection has been carried out by a syringe containing ligand solution of 100 μM, which adds ligand step-wise into the cell containing 10 μM TNPO3 during 28 injections of 10 μL each. Data analysis, curve fitting, and calculation of Kd, ΔH, and ΔS have been carried out using Origin-based 7.0 software provided by the manufacturer. All replicated ITC data are shown in Supplementary Fig. 6 and Supplementary Table 1.

TNPO3 C511A = biological target: T2, TNPO3 C511A (Homo sapiens, UniProt Q9Y5L0, C511A); assay: ITC, ligand titrated into TNPO3 C511A; assay type: binding; conditions: for TNPO3 binding Kd, outcome in words: TNPO3 C511A, two replicates
T2 construct: full-length (FL) WT human TNPO3 were generated by synthesizing codon-optimized DNA fragments; His6 (N, cleaved yes); protein A (N, cleaved yes); made in house; host or cells: Escherichia coli BL21-(DE3) Star
T2 sequence (Q9Y5L0 1-923 C511A): T1 sequence (Q9Y5L0 1-923) with C511A
Procedure: as §1

[1] = 100 µM ligand into 10 µM TNPO3 C511A, 25 °C, 50 mM Tris–HCl, 150 mM NaCl, 2 mM TCEP, 0.04% NaN3, pH 7.5, error = SD of the fit

Compound	Kd / affinity of binding to TNPO3 C511A (ITC), as given in Table 1 (TNPO3 C511A; [1])	TNPO3 binding Kd, outcome in words (TNPO3 C511A)	line broadening of peptide 1H signals upon addition of TNPO3 (1H NMR) (TNPO3)	further results
C[C@H](NC(=O)[C@H](Cc1ccc(O)cc1)NC(=O)[C@H](CO)NC(=O)[C@H](CC(=O)O)NC(=O)[C@H](Cc1ccc(O)cc1)NC(=O)[C@H](CO)NC(=O)[C@H](CC(=O)O)NC(=O)[C@H](CCCNC(=N)N)NC(=O)[C@H](Cc1ccc(O)cc1)NC(=O)[C@H](CO)NC(=O)CNC(=O)CNC(=O)[C@H](CO)NC(=O)[C@H](CO)NC(=O)[C@H](CCCNC(=N)N)NC(=O)[C@H](CC(=O)O)NC(=O)[C@H](COP(=O)(O)O)NC(=O)[C@H](Cc1ccc(O)cc1)NC(=O)CNC(=O)CNC(=O)[C@H](COP(=O)(O)O)NC(=O)[C@H](CCC(N)=O)NC(=O)[C@H](COP(=O)(O)O)NC(=O)[C@H](CCCNC(=N)N)NC(=O)[C@H](CO)NC(=O)[C@H](CO)NC(=O)[C@H](Cc1ccc(O)cc1)NC(=O)[C@H](Cc1ccc(O)cc1)NC(=O)[C@H](CC(=O)O)NC(=O)[C@H](CCCNC(=N)N)NC(=O)[C@H](CO)NC(=O)CN)C(=O)N[C@H](C(=O)N[C@@H](Cc1c[nH]cn1)C(=O)N[C@@H](CC(N)=O)C(=O)N[C@@H](CCC(=O)O)C(=O)O)[C@@H](C)O [pCIRBP^RSY] (H-GSRDYYSSR[pS]Q[pS]GGY[pS]DRSSGGSYRDSYDSYATHNE-OH)	–	–	–	chemical shift perturbations of TNPO3 methyl groups upon ligand addition (1H,13C HMQC) (TNPO3; pH 6.7): shifted to comparable end points; decrease of TNPO3 binding affinity upon SRPK1 phosphorylation (TNPO3 WT; ITC Kd 0.61 ± 0.10 versus 5.99 ± 0.96 µM): ten-fold; ΔS (TNPO3 WT; ITC, replicate 1 (rep1)): –112 cal/mol/deg; ΔS (TNPO3 WT; ITC, replicate 2 (rep2)): –50.6 cal/mol/deg
DGPRSPSYGRSRSRSRS [SRSF1^RS, recombinant canonical SR/RS-NLS of human SRSF1 (195-211), unphosphorylated, reference compound]	–	–	–	spectral changes of 15N-labeled cargo upon addition of TNPO3 (1H,15N HSQC) (TNPO3; 60 µM cargo, one stoichiometric equivalent of TNPO3, 298 K, pH 6.7): weak binding; chemical shift perturbations of TNPO3 methyl groups upon ligand addition (1H,13C HMQC) (TNPO3; pH 6.7): no binding was observed; Kd of binding to TNPO3 (ITC), as given in text and figures (TNPO3 WT; ITC, 100 µM ligand into 10 µM TNPO3 WT, 28 injections of 10 µL, 25 °C, 50 mM Tris–HCl, 150 mM NaCl, 2 mM TCEP, 0.04% NaN3, pH 7.5, error = SD of the fit): no binding was detectable
GGSYADSYDSYATHNE [CIRBP (157-172) R161A, synthetic CIRBP (157-172) peptide with point mutation R161A]	No binding	No binding	–	–
GGSYRDSADSYATHNE [CIRBP (157-172) Y164A, synthetic CIRBP (157-172) peptide with point mutation Y164A]	No binding	No binding	–	–
GGSYRDSYDSAATHNE [CIRBP (157-172) Y167A, synthetic CIRBP (157-172) peptide with point mutation Y167A]	Low affinity	Low affinity	–	–
GGSYRDSYDSYATHNE [CIRBP (157-172) WT]	–	–	–	Kd (TNPO3 C511A; 100 µM ligand into 10 µM TNPO3 C511A, 25 °C, 50 mM Tris–HCl, 150 mM NaCl, 2 mM TCEP, 0.04% NaN3, pH 7.5, error = SD of the fit, read-out: Kd / affinity of binding to TNPO3 C511A (ITC), as given in Table 1): 5.78 ± 1.63 µM
GGSYRDSYDSpYATHNE [CIRBP (157-172) Y167pY, synthetic CIRBP (157-172) peptide with phosphorylated Y167]	–	Low affinity	–	–
GGSYRDSYDpSYATHNE [CIRBP (157-172) S166pS, synthetic CIRBP (157-172) peptide with phosphorylated S166]	decreased binding beyond being detectable or fittable	No binding	–	–
GGSYRDSpYDSYATHNE [CIRBP (157-172) Y164pY, synthetic CIRBP (157-172) peptide with phosphorylated Y164]	decreased binding beyond being detectable or fittable	No binding	–	–
PSGGSYRDSYESYGNS [RBMX/RMXL1, synthetic peptide RBMX (276–291), CIRBP-like motif]	–	–	broadened	change of peptide 1H 1D NMR signals with sub-stoichiometric TNPO3 (TNPO3; 100 µM RSY regions and 10 µM TNPO3 (peer review reply)): slight decrease of peptide signal intensity
SQVYRCGFQPFNQHLLPW [P5CS]	–	–	broadened	–
SRDRRFRGRYRSPYSG [RBM39]	–	–	broadened	–
YYDYEIERFWRGGQYENFRV [ZCH18]	–	–	broadened	–
